Measured values published in publication PMC3578935, “Biochemical Characterization of CTX-M-15 from Enterobacter cloacae and Designing a Novel Non-β-Lactam-β-Lactamase Inhibitor” (PLoS ONE, 2013).
In brackets after ≈: the same amount, converted by molar mass. Entries after “also recorded” stand apart in the source; their conditions may differ. Like-named read-outs stand apart in the source and are kept apart here.

Key:
CTX-M-15 [1] = target: T1, CTX-M-15 (Escherichia coli, UniProt Q9EXV5); conditions: for K m or K i: K m for good substrates, for poor substrates (ceftazidime, cefepime, aztreonam) determined as K i against 100 µM nitrocefin; for k cat: 50 mM phosphate buffer pH 7.0, 30°C
Description: The inhibitors used were Clavulanic acid, Sulabctam, Tazobactam and ZINC03787097.
Hydrolysis of β-lactam antibiotics was detected by monitoring the variation in the absorbance due to cleavage of β-lactam ring in 50 mM phosphate buffer, pH 7.0 [28]. All the measurements were taken in triplicate on Shimadzu UV-VIS spectrophotometer (UV-1800). The reaction was performed in a total volume of 500 µl at 30°C. For dilution of the enzyme and to prevent denaturation, BSA was added to a final concentration of 20 µg/ml.

[2] = tested on: E. coli DH5α (Null Plasmid); assay: MIC by micro-dilution, null plasmid control strain; format: cell-based; conditions: Escherichia coli, read-out: MIC DH5α(Null Plasmid)
[3] = tested on: E. coli DH5α transformed with recombinant bla CTX-M-15 (pQE-2-CTX-M-15); assay: MIC by micro-dilution, β-lactams alone or with inhibitors; format: cell-based; conditions: for MIC: Escherichia coli, read-out: MIC DH5α(pQE-2-CTX-M-15), E. coli DH5α with bla CTX-M-15 cloned from E. cloacae EC-15; for MIC / MIC DH5α(pQE-2-CTX-M-15): in combinations clavulanic acid, sulbactam, tazobactam at 4 µg/ml; for MIC DH5α(pQE-2-CTX-M-15): E. coli DH5α with bla CTX-M-15 cloned from E. cloacae EC-15; for fold lowering of MIC of cefotaxime in combination with inhibitor: DH5α transformed with bla CTX-M-15
Description: E. coli DH5α and E. coli BL21 (DE3) were used for cloning and protein expression experiments, respectively. MICs were determined on E. coli DH5α transformed with cloned CTX-M-15 from Enterobacter cloacae clinical strain EC-15.
The MICs for various antibiotics alone or in combination with various inhibitors (clavulanic acid, sulbactam, tazobactam and ZINC03787097) were determined by micro-dilution method and the results were interpreted according to Clinical Laboratory Standards Institute (CLSI) guidelines. Briefly, E. coli DH5α cells transformed with CTX-M-15 was treated with increasing concentrations of the antibiotics ranging from 0.5 to 2000 µg/ml in a series of two fold dilutions. The inhibitors clavulanic acid, sulbactam and tazobactam were used at a fixed concentration of 4 µg/ml, while ZINC03787097 was used at 20 µg/ml.

CTX-M-15 [4] = target: T1, CTX-M-15; assay: Enzyme inhibition kinetics (acylation/deacylation, competition with nitrocefin); conditions: for K′: dissociation constant of the Henri-Michaelis complex; for k +2 x 10^−2: first-order acylation constant, values x 10^−2
Description: (§1) The parameters k +2, k +3 and K′ are the first-order acylation and deacylation constants, and the dissociation constant of the Henri-Michaelis complex, respectively.
(§2) where, v o, v t and v ss are the rates of utilization of the reporter substrate at times 0 and t, and after the steady-state has been established, respectively.
(§3) The individual parameters, k +2, k +3 and K′, were derived from the dependence of k i upon inhibitor concentration, [C], on the basis of the following equation: [drawing 10]
(§4) When the concentration of inhibitor [C] is well below K′, k i varies linearly the above equations is simplified as: [drawing 11]
(§5) The k +2/K′ value is then obtained from the slope of the line, whereas k +3 is given by the intercept at [C] = 0. Conversely, if [C] is much larger than K′ (K m+[S])/K m, then k i = k +2+k +3, and is independent of [C]

CTX-M-15 [5] = target: T1, CTX-M-15; assay: IC50 determination, nitrocefin hydrolysis after 5 min pre-incubation; format: biochemical, Enterobacter cloacae; set-up: His tag (inferred from the pQE-2 vector and Ni-NTA purification); made in house; host or cells: E. coli BL21 (DE3); conditions: IC50, 5 min pre-incubation at 30°C; 100 µM nitrocefin
Description: The 50% inhibitory concentration (IC50) was determined as the concentration of the inhibitor that inhibited hydrolytic activity of the enzyme by 50%.

CTX-M-15 [6] = target: T1, CTX-M-15; format: biochemical, Enterobacter cloacae; set-up: His tag (inferred from the pQE-2 vector and Ni-NTA purification); made in house; host or cells: E. coli BL21 (DE3)
CTX-M-15 [7] = target: T1, CTX-M-15; assay: Stability of ZINC03787097 in the presence of CTX-M-15 (UV absorbance); format: biochemical, Enterobacter cloacae; set-up: His tag (inferred from the pQE-2 vector and Ni-NTA purification); made in house; host or cells: E. coli BL21 (DE3); conditions: 100 µM inhibitor, 10 nM CTX-M-15, 3600 seconds, absorbance at 283 nm and 222 nm
Description: The UV absorption spectrum (320-210 nm) of ZINC03787097 (100 µM) alone or after 3600 seconds incubation with CTX-M-15 (10 nM) was measured in 50 mM phosphate buffer, pH 7.0 at 30°C on Shimadzu UV-VIS spectrophotometer (UV-1800). The stability of ZINC03787097 in the presence of CTX-M-15 was monitored by measuring the absorbance for 3600 seconds at 283 nm and 222 nm.

[8] = tested on: O=C(Cc1cccs1)N[C@@H]1C(=O)N2C(C(=O)O)=C(/C=C/c3ccc([N+](=O)[O-])cc3[N+](=O)[O-])CS[C@H]12; assay: purified protein, by the assay type; conditions: other: 50 mM phosphate buffer pH 7.0, 30°C
[9] = tested on: CO/N=C(\C(=O)N[C@@H]1C(=O)N2C(C(=O)O)=C(CSc3nc(=O)c(=O)[nH]n3C)CS[C@H]12)c1csc(N)n1; assay: purified protein, by the assay type; conditions: other: 50 mM phosphate buffer pH 7.0, 30°C
[10] = tested on: CO/N=C(\C(=O)N[C@@H]1C(=O)N2C(C(=O)O)=C(COC(N)=O)CS[C@H]12)c1ccco1; assay: purified protein, by the assay type; conditions: other: 50 mM phosphate buffer pH 7.0, 30°C
[11] = tested on: CCN1CCN(C(=O)N[C@@H](C(=O)N[C@@H]2C(=O)N3[C@@H]2SC(C)(C)[C@@H]3C(=O)O)c2ccccc2)C(=O)C1=O; assay: purified protein, by the assay type; conditions: other: 50 mM phosphate buffer pH 7.0, 30°C
[12] = tested on: C[C@]1(Cn2ccnn2)[C@H](C(=O)O)N2C(=O)C[C@H]2S1(=O)=O; assay: purified protein, by the assay type; conditions: other: slope of k i versus inhibitor concentration
Description: as §1, §2, §3, §4, §5

[13] = tested on: CO/N=C(\C(=O)N[C@@H]1C(=O)N2C(C(=O)O)=C(COC(C)=O)CS[C@H]12)c1csc(N)n1; assay: purified protein, by the assay type; conditions: other: 50 mM phosphate buffer pH 7.0, 30°C
[14] = tested on: CC1(C)S[C@@H]2[C@H](NC(=O)[C@H](N)c3ccccc3)C(=O)N2[C@H]1C(=O)O; assay: purified protein, by the assay type; conditions: other: 50 mM phosphate buffer pH 7.0, 30°C
[15] = tested on: CC(C)(O/N=C(\C(=O)N[C@@H]1C(=O)N2C(C(=O)[O-])=C(C[n+]3ccccc3)CS[C@H]12)c1csc(N)n1)C(=O)O; assay: purified protein, by the assay type; conditions: other: 50 mM phosphate buffer pH 7.0, 30°C
[16] = in combinations clavulanic acid, sulbactam, tazobactam at 4 µg/ml, ZINC03787097 at 20 µg/ml
[17] = K i calculated as K i = k +3 K/k +2, calculated value
[18] = K i, determined at steady-state, competition with 100 µM nitrocefin

CC1(C)S[C@@H]2[C@H](NC(=O)[C@H](N)c3ccccc3)C(=O)N2[C@H]1C(=O)O [Ampicillin]
K m or K i (CTX-M-15 [1]): 15 ± 2 µM
MIC [2, 16]: 2 µg/mL

C[C@H]1[C@H](NC(=O)/C(=N\OC(C)(C)C(=O)O)c2csc(N)n2)C(=O)N1S(=O)(=O)O [Aztreonam]
MIC [2]: 0.25 µg/mL (≈ 0.574 µM)
MIC ([3]; ZINC03787097 at 20 µg/ml): 16 µg/mL

Cc1nnc(SCC2=C(C(=O)O)N3C(=O)[C@@H](NC(=O)Cn4cnnn4)[C@H]3SC2)s1 [Cefazolin]
MIC [2]: 2 µg/mL (≈ 4.4 µM)

CO/N=C(\C(=O)N[C@@H]1C(=O)N2C(C(=O)[O-])=C(C[N+]3(C)CCCC3)CS[C@H]12)c1csc(N)n1 [Cefepime]
MIC [2]: 0.25 µg/mL (≈ 0.52 µM)
MIC DH5α(pQE-2-CTX-M-15) ([3]; ZINC03787097 at 20 µg/ml, listed as Cefepime (IV)): 128 µg/ml
MIC ([3]; ZINC03787097 at 20 µg/ml): 125 µg/mL

CO/N=C(\C(=O)N[C@@H]1C(=O)N2C(C(=O)O)=C(COC(C)=O)CS[C@H]12)c1csc(N)n1 [Cefotaxime]
K m or K i (CTX-M-15 [1]): 60 ± 3 µM
MIC [2, 16]: 0.25 µg/mL
MIC DH5α(pQE-2-CTX-M-15) ([3]; ZINC03787097 at 20 µg/ml, listed as Cefotaxime (III)): 512 µg/ml
MIC ([3]; ZINC03787097 at 20 µg/ml): 500 to 1000 µg/mL

CO[C@@]1(NC(=O)Cc2cccs2)C(=O)N2C(C(=O)O)=C(COC(N)=O)CS[C@@H]21 [Cefoxitin]
MIC [2, 16]: 2 µg/mL
MIC ([3]; ZINC03787097 at 20 µg/ml): 16 µg/mL

CC(C)(O/N=C(\C(=O)N[C@@H]1C(=O)N2C(C(=O)[O-])=C(C[n+]3ccccc3)CS[C@H]12)c1csc(N)n1)C(=O)O [Ceftazidime]
k cat (CTX-M-15 [1]): 1.51 s⁻¹
K m or K i (CTX-M-15 [1]): 1209 µM
K m or K i (CTX-M-15 [1]; listed as Ceftazidime (III)): 1209 ± 91 µM
MIC [2, 16]: 0.25 µg/mL
MIC ([3]; ZINC03787097 at 20 µg/ml): 4 µg/mL

CO/N=C(\C(=O)N[C@@H]1C(=O)N2C(C(=O)O)=C(CSc3nc(=O)c(=O)[nH]n3C)CS[C@H]12)c1csc(N)n1 [Ceftriaxone]
K m or K i (CTX-M-15 [1]): 33 ± 2 µM
MIC [2, 16]: 0.06 µg/mL

CO/N=C(\C(=O)N[C@@H]1C(=O)N2C(C(=O)O)=C(COC(N)=O)CS[C@H]12)c1ccco1 [Cefuroxime]
K m or K i (CTX-M-15 [1]): 29 ± 2 µM
MIC [2, 16]: 1 µg/mL

O=C(O)[C@H]1/C(=C/CO)O[C@@H]2CC(=O)N21 [Clavulanic acid]
Ki (CTX-M-15 [4]; [17]): 0.106 µM
Ki (CTX-M-15 [4]; [18]): 0.099 µM
K′ (CTX-M-15 [4]): 0.72 µM
k +2 x 10^−2 (CTX-M-15 [4]): 1.3 s^−1
fold lowering of MIC of cefotaxime in combination with inhibitor [3]: 16 fold
IC50 (CTX-M-15 [5]): 0.014 µM

O=C(Cc1cccs1)N[C@@H]1C(=O)N2C(C(=O)O)=C(/C=C/c3ccc([N+](=O)[O-])cc3[N+](=O)[O-])CS[C@H]12 [Nitrocefin]
k cat (CTX-M-15 [1]): 582 s⁻¹
K m or K i (CTX-M-15 [1]): 35 ± 4 µM
K m for nitrocefin hydrolysis (CTX-M-15 [6]; 0.00 µM ZINC03787097, 0.50 nM CTX-M-15): 42 µM

CCN1CCN(C(=O)N[C@@H](C(=O)N[C@@H]2C(=O)N3[C@@H]2SC(C)(C)[C@@H]3C(=O)O)c2ccccc2)C(=O)C1=O [Piperacillin]
K m or K i (CTX-M-15 [1]): 32 ± 5 µM
MIC [2, 16]: 1 µg/mL

CC1(C)[C@H](C(=O)O)N2C(=O)C[C@H]2S1(=O)=O [Sulbactam]
Ki (CTX-M-15 [4]; [17]): 0.131 µM
Ki (CTX-M-15 [4]; [18]): 0.062 µM
K′ (CTX-M-15 [4]): 0.55 µM
k +2 x 10^−2 (CTX-M-15 [4]): 1.6 s^−1
fold lowering of MIC of cefotaxime in combination with inhibitor [3]: 2 fold
IC50 (CTX-M-15 [5]): 0.212 µM

C[C@]1(Cn2ccnn2)[C@H](C(=O)O)N2C(=O)C[C@H]2S1(=O)=O [Tazobactam]
Ki (CTX-M-15 [4]; [17]): 0.013 µM
Ki (CTX-M-15 [4]; [18]): 0.017 µM
K′ (CTX-M-15 [4]): 0.03 µM
k +2 x 10^−2 (CTX-M-15 [4]): 1.3 s^−1
fold lowering of MIC of cefotaxime in combination with inhibitor [3]: 8 fold
fold reduction of MICs of β-lactam antibiotics ([3]; inhibitor in combination with β-lactam antibiotics): 2–16 folds
IC50 (CTX-M-15 [5]): 0.001 µM

CC#CCC(C)C(O)C=CC1C(O)CC2Oc3c(CCCC(=O)O)cccc3C21 (stereo not drawn) [ZINC03787097]
Ki (CTX-M-15 [4]; [18]): 0.388 µM
K m for nitrocefin hydrolysis in the presence of inhibitor (CTX-M-15 [6]; 0.25 µM ZINC03787097, 0.50 nM CTX-M-15): 67 µM
K m for nitrocefin hydrolysis in the presence of inhibitor (CTX-M-15 [6]; 0.50 µM ZINC03787097, 0.50 nM CTX-M-15): 94 µM
K m for nitrocefin hydrolysis in the presence of inhibitor (CTX-M-15 [6]; 0.75 µM ZINC03787097, 0.50 nM CTX-M-15): 96 µM
mode of inhibition (CTX-M-15 [6]; Lineweaver-Burg plot): reversible inhibitor; also recorded: competitive inhibition
Vmax of nitrocefin hydrolysis (CTX-M-15 [6]; similar at 0.00-0.75 µM ZINC03787097): 3.22e-07 M/s
hydrolysis of inhibitor by CTX-M-15 (CTX-M-15 [7]): no detectable hydrolysis; also recorded: negligible hydrolysis
fold lowering of MIC of cefotaxime in combination with inhibitor [3]: 2 fold
effect on MICs of antibiotics of cephalosporin group ([3]; ZINC03787097 at 20 µg/ml): reduced in the presence of ZINC03787097 to a level observed in the case of antibiotic-sulbactam combination
IC50 (CTX-M-15 [5]): 0.18 µM

CTX-M-15 (Escherichia coli)
kcat [8]: 582 s⁻¹
kcat/Km [8]: 1.66e+07 M⁻¹ s⁻¹
kcat [9]: 82 ± 5 s⁻¹
kcat/Km [9]: 2.5e+06 M⁻¹ s⁻¹
kcat [10]: 87 ± 2 s⁻¹
kcat/Km [10]: 3e+06 M⁻¹ s⁻¹
kcat [11]: 58 ± 4 s⁻¹
kcat/Km [11]: 1.8e+06 M⁻¹ s⁻¹
kcat/Km [12]: 440000 M⁻¹ s⁻¹
kcat [13]: 222 ± 7 s⁻¹
kcat/Km [13]: 3.7e+06 M⁻¹ s⁻¹
kcat [14]: 57 ± 3 s⁻¹
kcat/Km [14]: 3.8e+06 M⁻¹ s⁻¹
kcat [15]: 1.51 ± 0.03 s⁻¹
kcat/Km [15]: 1200 M⁻¹ s⁻¹
